Laboratory results: US20220090124A1, “HUMANIZED VIPR2 COPY NUMBER VARIANT TRANSGENIC MOUSE MODEL FOR ANTIPSYCHOTIC DRUG AND GENE THERAPY DISCOVERY FOR SCHIZOPHRENIA” (Board of Supervisors of Louisiana State University and …, priority 2019, published 2022)

Legend:
hVPAC1 = biological target: T1, hVPAC1 (Homo sapiens, UniProt P32241); conditions: selectivity; cited from earlier work
T1 sequence (P32241 31-457): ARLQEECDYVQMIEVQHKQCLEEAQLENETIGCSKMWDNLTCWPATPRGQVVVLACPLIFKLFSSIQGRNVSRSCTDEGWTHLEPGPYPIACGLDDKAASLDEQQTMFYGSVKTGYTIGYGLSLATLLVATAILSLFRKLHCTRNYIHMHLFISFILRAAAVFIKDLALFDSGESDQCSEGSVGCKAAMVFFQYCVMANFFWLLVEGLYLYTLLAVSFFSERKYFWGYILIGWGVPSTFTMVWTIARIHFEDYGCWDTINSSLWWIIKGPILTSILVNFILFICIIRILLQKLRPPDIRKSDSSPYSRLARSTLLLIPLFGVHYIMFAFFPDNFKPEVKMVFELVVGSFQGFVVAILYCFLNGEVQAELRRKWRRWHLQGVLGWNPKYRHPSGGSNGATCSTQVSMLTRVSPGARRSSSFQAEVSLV

human VIPR2 receptor = biological target: T2, human VIPR2 receptor (Homo sapiens, UniProt P41587); assay: receptor block and downstream signaling in cell line expressing the human VIPR2 receptor; assay type: cell-based; conditions: cell line expressing the human VIPR2 receptor (cell line of VIPR2 CNV)
T2 construct: expressed in transfected cells; host or cells: cell line of VPIR2 CNV (not further described)
T2 sequence (P41587 24-438): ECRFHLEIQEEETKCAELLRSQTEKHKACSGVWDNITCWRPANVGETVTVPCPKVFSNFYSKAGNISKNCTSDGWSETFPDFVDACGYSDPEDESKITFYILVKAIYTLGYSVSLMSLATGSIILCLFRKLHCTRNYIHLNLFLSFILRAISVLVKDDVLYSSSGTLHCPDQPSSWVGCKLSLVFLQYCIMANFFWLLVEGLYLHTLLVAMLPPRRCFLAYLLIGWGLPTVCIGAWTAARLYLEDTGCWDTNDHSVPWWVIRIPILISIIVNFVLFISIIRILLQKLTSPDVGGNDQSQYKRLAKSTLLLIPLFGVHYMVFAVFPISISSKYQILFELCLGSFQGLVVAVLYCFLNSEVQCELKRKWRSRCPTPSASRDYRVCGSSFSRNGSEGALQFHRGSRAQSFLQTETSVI
From the text: Turning finally to FIG. 57, a small molecule VIPR2 antagonist, (2R,4S)-2-benzyl-4-hydroxy-N-((1S,2R)-2-hydroxy-2,3-dihydro-1H-inden-1-yl)-5-(4-nitrophenylsulfonamido) pentanamide, is shown. Another object of the present invention is to use the VIRP2 BAC Schizophrenia mouse model to identify VIPR2 receptor antagonist as an antipsychotic drug targeting cognitive and social deficits, or as disease-modifying therapy to prevent or slow/stop disease progression. Currently, the majority of VIPR2 agonist or antagonist are peptides. However, two properties of the peptide hormone are problematic from the perspective of therapeutic applications. First, they have a short half-life as a result of its rapid proteolysis. Second, most of these peptides are not specific and activate three broadly distributed receptors, VIPR1, VIPR2, and PAC1. A high-throughput screen on human VPAC2 receptor using a cell-based cAMP assay has identified a single confirmed antagonist hit from a 1.67 million-compound collection. This compound is the first specific small molecule antagonist for human VIPR2 receptor. The full name of the compound is (2R,4S)-2-benzyl-4-hydroxy-N-((1S,2R)-2-hydroxy-2,3-dihydro-1H-inden-1-yl)-5-(4-nitrophenylsulfonamido) pentanamide (FIG. 57). […] The inventors experimented with this hVIPR2 antagonist in the cell line of VPIR2 CNV. […]

human VPAC2 receptor = biological target: T3, human VPAC2 receptor (Homo sapiens, UniProt P41587); conditions: high-throughput screen of 1.67 million-compound collection, cell-based cAMP assay; cited from earlier work
T3 sequence (P41587 24-438): T2 sequence (P41587 24-438)

mouse Vipr2 receptor = biological target: T4, mouse Vipr2 receptor (Mus musculus, UniProt P41588); conditions: species specificity; cited from earlier work
T4 sequence (P41588 23-437): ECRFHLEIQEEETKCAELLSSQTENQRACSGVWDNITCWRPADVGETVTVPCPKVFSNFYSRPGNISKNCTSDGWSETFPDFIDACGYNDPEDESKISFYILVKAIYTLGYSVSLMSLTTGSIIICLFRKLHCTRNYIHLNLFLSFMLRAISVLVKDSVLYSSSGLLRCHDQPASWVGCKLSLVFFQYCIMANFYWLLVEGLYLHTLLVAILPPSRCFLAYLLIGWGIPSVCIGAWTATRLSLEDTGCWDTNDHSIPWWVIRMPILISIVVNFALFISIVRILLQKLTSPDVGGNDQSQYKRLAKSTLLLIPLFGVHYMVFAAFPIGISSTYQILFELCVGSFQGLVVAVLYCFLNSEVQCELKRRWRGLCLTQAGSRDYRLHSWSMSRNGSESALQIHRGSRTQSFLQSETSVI

hPAC1 = biological target: T5, hPAC1 (Homo sapiens, UniProt P41586); conditions: selectivity; cited from earlier work
T5 sequence (P41586 21-468): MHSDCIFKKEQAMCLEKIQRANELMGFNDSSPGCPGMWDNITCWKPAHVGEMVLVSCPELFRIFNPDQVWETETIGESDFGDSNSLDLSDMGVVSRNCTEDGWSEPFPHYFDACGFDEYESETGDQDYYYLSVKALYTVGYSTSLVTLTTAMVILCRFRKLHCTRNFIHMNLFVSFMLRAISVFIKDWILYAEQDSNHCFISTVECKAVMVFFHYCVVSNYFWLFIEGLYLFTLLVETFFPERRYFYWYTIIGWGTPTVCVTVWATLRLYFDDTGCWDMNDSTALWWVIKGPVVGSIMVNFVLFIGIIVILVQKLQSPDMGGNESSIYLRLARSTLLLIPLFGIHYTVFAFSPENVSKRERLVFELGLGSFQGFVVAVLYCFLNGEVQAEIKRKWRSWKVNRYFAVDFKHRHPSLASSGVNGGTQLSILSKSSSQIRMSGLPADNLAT

O=C(N[C@H]1c2ccccc2C[C@H]1O)[C@H](Cc1ccccc1)C[C@H](O)CNS(=O)(=O)c1ccc([N+](=O)[O-])cc1 [(2R,4S)-2-benzyl-4-hydroxy-N-((1S,2R)-2-hydroxy-2,3-dihydro-1H-inden-1-yl)-5-(4-nitrophenylsulfonamido) pentanamide]
antagonism of hVPAC1 (hVPAC1): does not antagonize | block of VIPR2 receptor and downstream signaling (human VIPR2 receptor): blocks the VIPR2 receptor and the downstream signaling | antagonist activity on human VIPR2 receptor (human VPAC2 receptor): selective human VIPR2 antagonist | activity on the mouse Vipr2 receptor (mouse Vipr2 receptor): completely lacks activity | antagonism of hPAC1 (hPAC1): does not antagonize
